This experiment has as its target T1, plasma membrane Ca2+-ATPase (PMCA), 90% PMCA4b (Homo sapiens, UniProt P23634).
T1 construct: gene ATP2B4
In words: fluorescence of ATA bound to purified PMCA and quenching of intrinsic Trp fluorescence; also Ca2+-ATPase inhibition (Ki […]). Format: binding.

T1 sequence (P23634 1-1205 isoform P23634-6): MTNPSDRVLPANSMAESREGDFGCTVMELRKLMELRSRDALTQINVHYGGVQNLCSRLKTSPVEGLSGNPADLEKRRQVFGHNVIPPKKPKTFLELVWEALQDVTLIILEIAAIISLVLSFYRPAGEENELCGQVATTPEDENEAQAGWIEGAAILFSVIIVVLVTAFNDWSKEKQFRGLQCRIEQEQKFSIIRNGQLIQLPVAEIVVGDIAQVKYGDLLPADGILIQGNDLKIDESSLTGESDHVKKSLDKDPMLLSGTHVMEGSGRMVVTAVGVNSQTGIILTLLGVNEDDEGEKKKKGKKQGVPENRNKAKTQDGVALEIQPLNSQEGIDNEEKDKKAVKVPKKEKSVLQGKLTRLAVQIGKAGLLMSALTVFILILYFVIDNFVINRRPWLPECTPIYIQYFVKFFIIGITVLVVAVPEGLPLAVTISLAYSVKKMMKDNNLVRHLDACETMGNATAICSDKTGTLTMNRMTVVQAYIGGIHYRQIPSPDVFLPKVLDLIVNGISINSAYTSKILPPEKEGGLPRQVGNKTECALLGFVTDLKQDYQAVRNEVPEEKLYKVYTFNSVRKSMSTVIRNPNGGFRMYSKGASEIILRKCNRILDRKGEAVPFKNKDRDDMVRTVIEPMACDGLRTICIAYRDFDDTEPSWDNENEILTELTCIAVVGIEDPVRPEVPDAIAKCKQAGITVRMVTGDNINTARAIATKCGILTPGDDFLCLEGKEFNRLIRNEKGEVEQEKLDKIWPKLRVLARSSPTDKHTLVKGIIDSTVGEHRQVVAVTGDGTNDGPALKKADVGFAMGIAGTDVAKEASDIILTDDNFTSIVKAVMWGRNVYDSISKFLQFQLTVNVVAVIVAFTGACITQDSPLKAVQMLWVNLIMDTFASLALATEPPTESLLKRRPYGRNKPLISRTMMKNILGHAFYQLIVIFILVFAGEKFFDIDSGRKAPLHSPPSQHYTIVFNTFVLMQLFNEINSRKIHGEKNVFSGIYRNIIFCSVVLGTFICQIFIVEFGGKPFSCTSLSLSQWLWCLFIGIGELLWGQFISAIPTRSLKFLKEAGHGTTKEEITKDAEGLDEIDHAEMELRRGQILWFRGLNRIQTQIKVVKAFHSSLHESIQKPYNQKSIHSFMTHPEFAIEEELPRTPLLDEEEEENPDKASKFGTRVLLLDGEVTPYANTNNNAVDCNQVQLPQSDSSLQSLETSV

In the case of `O=C(O)C1=CC(=C(c2ccc(O)c(C(=O)O)c2)c2ccc(O)c(C(=O)O)c2)C=CC1=O` [ATA, aurintricarboxylic acid], the dissociation constant Kd (usually the free concentration of one partner at which half of the binding sites on the other are occupied at equilibrium, for simple one-to-one binding) worked out at 0.16 µM. That is a sub-micromolar value.

The values above are taken from PMC11208427, “Magnesium enhances aurintricarboxylic acid’s inhibitory action on the plasma membrane Ca^2+-ATPase” (Scientific Reports, 2024).
